O=[N+]([O-])c1ccc(Oc2ccc([N+](=O)[O-])cc2)cc1
solubility (mole fraction)
Conditions	283.15 K	288.15 K	293.15 K	298.15 K	303.15 K	308.15 K	313.15 K	318.15 K	323.15 K
in 1,4-dioxane	0.026	0.0325	0.0409	0.0489	0.0575	0.0674	0.08	0.0922	0.11
in 1-methoxy-2-propanol	0.00539	0.00657	0.0071	0.00864	0.00979	0.0114	0.0137	0.0162	0.0198
in 2-methoxyethanol	0.00657	0.00753	0.00823	0.0103	0.0116	0.0131	0.0158	0.0182	0.022
in DMAc	0.0802	0.0866	0.0913	0.103	0.115	0.126	0.144	0.164	0.184
in DMF	0.0524	0.0612	0.0663	0.077	0.0883	0.0933	0.111	0.126	0.152
in acetic acid	0.00292	0.00347	0.00366	0.00469	0.00525	0.00612	0.0072	0.00835	0.0103
in acetone	0.0155	0.0173	0.0197	0.0246	0.0281	0.0333	0.0401	0.0484	0.0571
in acetonitrile	0.00446	0.00587	0.00682	0.00926	0.0104	0.0129	0.0158	0.0195	0.0241
in anisole	0.0243	0.0293	0.0339	0.0395	0.0444	0.0547	0.0647	0.0746	0.0893
in ethanol	0.00035	0.000369	0.000418	0.000531	0.000631	0.000807	0.00102	0.00124	0.0015
in ethyl acetate	0.0133	0.015	0.0172	0.0206	0.0228	0.0266	0.0316	0.036	0.0422
in isopropanol	0.000139	0.000199	0.000222	0.000322	0.000394	0.000538	0.000779	0.000996	0.00136
in methanol	0.000259	0.000329	0.000376	0.000525	0.000637	0.000804	0.00095	0.00115	0.00145
in n-butanol	0.000203	0.000337	0.00049	0.000661	0.000826	0.00111	0.00144	0.00183	0.00241

— BigSolDB 2.1
